SMILES strings stand for the structures. Several values for one entry are separate records, joined by “and”; a condition that tells them apart may be missing. Equal entries are not always repeated.

This is an account of results in US5268389A, “Thiocarboxylate ester compounds compositions containing the same” (priority 1990, dated 1993).

The test system of test [1] is HIV. Kind of test: Reduction of HIV cytopathic effect, CEMZ (CEM line with sub-effective amount of AZT). Format: cell-based. The settings on record: CEM cells, read-out: Activity of Anti-HIV Compounds (EC50), CEMZ. On the procedure:
(§1) The compounds of Examples were tested for anti-AIDS activity by subjecting them to standard National Cancer Institute ("NCI") in vitro screening procedures. In carrying out each test, two blanks were run. In the first blank, HIV and a culture of a standard human cell line were incubated together to measure the infectivity of the virus. The viability of the cells was measured after holding for six or seven days. In an "effective" test, most cells were infected before the holding period was complete.
(§2) In the second blank, the cell line culture and the compound being tested (but not virus) were incubated together to measure the toxicity of the drug to the cellline. The viability of the cells was measured as a function of concentration of the compound, after holding for seven days. Typically, the cells survive at low compound concentrations, but at some higher concentration, toxicity of the compound is manifested and the cells die. The concentration of the test compound that results in 50% inhibition of cell growth is defined as the IC50.
(§3) Finally, the protective effects of the test compounds were measured. Each cell culture and test compound were incubated with the virus and the viability of the cells was measured as a function of compound concentration after holding for six or seven days. If the compound is active in protecting the cells against the virus, there is typically low cell viability until an effective concentration of the test compound is reached. At this point, cell viability increases steadily toward 100% unless the toxic effect of the compound (as measured in the second blank) takes effect. The concentration of the test compound that results in 50% "control," i.e., a 50% reduction of the viral cytopathic effect, is defined as the EC 50. The therapeutic index TI50 is calculated as IC50/EC50.
(§4) Values of test compound concentrations required for between 20 and 50% reduction of the viral cytopathic effect can also be determined. Such compounds are classified as moderately active.
(§5) The compounds were tested to determine their reduction of HIV cytopathic effect on the human cell lines CEM and MT2. Tests were done by innoculating these cell lines either with free HIV (V) or with a virus Previously cultured with host cells (C). Thus, in Table III the designation CEMV means CEM line cells innoculated with free virus and MT2C means MT2 cells innoculated with cultured viral infected MT2 cells. In some cases the compound was also tested on a cell line together with a sub-effective amount of the known HIV viricide AZT. This is done to test possible synergistic effects. Such a test on the CEM line is denoted CEMZ.

In test [2] the test system is HIV. Kind of test: microbe, parasite or virus in culture. It counts as cell-based. The settings on record: CEM cells, free HIV, read-out: Activity of Anti-HIV Compounds (EC50), CEMV. On the procedure:
as §1, §2, §3, §4, §5
(§6) 1) T4 lymphocytes (CEM cell line) are exposed to HIV at a virus to cell ratio of approximately 0.05 and plated along with non-infected control cells in 96-well microtiter plates.
(§7) 2) Each candidate agent is dissolved in dimethyl sulfoxide (unless otherwise indicated), then diluted 1:200 in cell culture medium. Further dilutions (five-fold) are prepared before adding to an equal volume of medium containing either infected or noninfected cells.
(§8) 3) Cultures are incubated at 37° C. in a 5% carbon dioxide atmosphere for seven days (if six days the CEMV test is identified as CEM-6).
(§9) 4) The tetrazolium salt, XTT, is added to all wells, and cultures are incubated to allow formazan color development by viable cells.
(§10) 5) Individual wells are analyzed spectrophotometrically to quantity formazan production, and in addition are viewed microscopically for detection of viable cells and confirmation of protective activity.
(§11) 6) Drug-treated virus-infected cells are compared with drug-treated non-infected cells and with other appropriate controls (untreated infected and untreated non-infected cells, drug-containing wells without cells, etc.) on the same plate.
7) A determination of activity is made. […]

Test [3] concerns succinate dehydrogenase complex. As to conditions: mitochondria from Ustilago maydis, White et al. (1978); cited from earlier work.
Test [4] relates to HIV. Kind of test: Reduction of HIV cytopathic effect, CEMC (CEM cells, virus previously cultured with host cells). It counts as cell-based. As to conditions: inhibition of viral cytopathic effect. The procedure:
as §1, §2
as §3, with “The concentration of the test compound that results in 50% "control," i.e., a 50% reduction of the viral cytopathic effect, is defined as the EC 50.” left out
Values of test compound concentrations required for between 20 and 50% reduction of the viral cytopathic effect can also be determined. […]
5) Individual wells are analyzed spectrophotometrically to quantity formazan production, and in addition are viewed microscopically for detection of viable cells and confirmation of protective activity. […]

The test system of test [5] is HIV. Kind of test: Reduction of HIV cytopathic effect, CEM-IW protocol. Format: cell-based. As to conditions: inhibition of viral cytopathic effect, asterisk: CEMIW protocol. On the procedure: as §1, §3, §4, §5
The aforementioned identifiers are used when a batch was prepared and samples inserted into the wells. In procedures calling for the addition of the drug (or no drug) and the CEM uninfected cells to each well, followed by the subsequent addition of the HIV virus, the protocol is designated as CEM-IW.
as §9, §10, §11
Asterisks indicate the CEMIW protocol.

Test [6] relates to HIV. Kind of test: Reduction of HIV cytopathic effect, CEM-6 (CEMV test, six days). It counts as cell-based. As to conditions: CEM cells; for Activity class of Anti-HIV Compounds, CEM-6: inhibition of viral cytopathic effect, 8640 min; for EC50: free HIV, read-out: Activity of Anti-HIV Compounds (EC50), CEM-6. The procedure: as §1, §3, §4, §5, §6, §7, §8, §9, §10, §11
Where [7] appears, read: Human immunodeficiency virus 1, CCRF-CEM.
The mark [8] stands for this setting: Human immunodeficiency virus 1, CCRF-CEM, 144 h.

Regarding `Cc1ccoc1C(=O)Nc1ccc(Cl)c(C(=O)OC(C)C)c1` [Compound 17, 1-Methylethyl 2-chloro-5-[[(3-methyl-2-furanyl)carbonyl]amino]benzoate], the EC50 was determined as 7.9 µM in test [1] (setting [7]) and 3.3 µM in test [2] (setting [7]).

As for `CCOC(=O)c1cccc(NC(=O)C2=C(C)OCCS2)c1` [Compound 8, Ethyl 3-[[(5,6-dihydro-2-methyl-1,4-oxathiin-3-yl)carbonyl]amino]benzoate], in test [3], the “inhibition of succinate dehydrogenase complex” value is listed as “inhibitors of succinate dehydrogenase complex”. The “Activity class of Anti-HIV Compounds, CEMC” value in test [4] was “MA (moderate activity (MA), that is, inhibition between approximately 20 and 50%)”.

For `COCCOCCOC(=O)c1cc(NC(=O)C2=C(C)OCCS2)ccc1Cl` [Compound 78, 2-(2-Methoxyethoxy)ethyl 2-chloro-5-[[(5,6-dihydro-2-methyl-1,4-oxathiin-3-yl)carbonyl]amino]benzoate], the “Activity class of Anti-HIV Compounds, CEM-IW” value in test [5] is “MA (moderate activity (MA), that is, inhibition between approximately 20 and 50%)”. In addition, the “Activity class of Anti-HIV Compounds, CEM-6” value (from here on “Activity class … CEM-6”) in test [6] was “MA (moderate activity (MA), that is, inhibition between approximately 20 and 50%)”.

For the molecule `COC(=O)c1cccc(NC(=O)C2=C(C)OCCS2)c1` [methyl 3-[[(5,6-dihydro-2-methyl-1,4-oxathiin-3-yl)carbonyl]amino]benzoate, reference compound], the “inhibition of succinate dehydrogenase complex” value in test [3] was “inhibitors of succinate dehydrogenase complex”.

Take `Cc1oc(C)c(C(=O)Nc2ccc(Cl)c(C(=O)OC(C)C)c2)c1C` [Compound 16, 1-Methylethyl 2-chloro-5-[[(2,4,5-trimethyl-3-furanyl)carbonyl]amino]benzoate]: the EC50 in test [1] (setting [7]) was found to be 0.9 µM.

As to `Cc1ccccc1C(=O)Nc1ccc(Cl)c(C(=O)OC(C)C)c1` [Compound 23, 1-Methylethyl 2-chloro-5-[(2-methylbenzoyl)amino]benzoate], the results for the EC50 in test [1] (setting [7]), in test [2] and in test [2] (setting [7]) were 1.1 µM, 5.6 µM and 5.8 µM, respectively.

In the case of `CCCOC(=O)c1cc(NC(=O)c2ccccc2C)ccc1Cl` [Compound 24, Propyl 2-chloro-5-[(2-methylbenzoyl)amino]benzoate], the EC50 in test [1] (setting [7]) came out at 12 µM.

As to `Cc1nc(C)c(C(=O)Nc2ccc(Cl)c(C(=O)OC(C)C)c2)s1` [Compound 94], in test [5], the “Activity class of Anti-HIV Compounds, CEM-IW” value is “MA (moderate activity (MA), that is, inhibition between approximately 20 and 50%)”. Besides, the “Activity class … CEM-6” value in test [6] is “MA (moderate activity (MA), that is, inhibition between approximately 20 and 50%)”.

For the molecule `CCC1=C(C(=O)Nc2ccc(Cl)c(C(=O)OCC(C)C)c2)SCCO1` [Compound 74, 2-Methylpropyl 2-chloro-5-[[(2-ethyl-5,6-dihydro-1,4-oxathiin-3-yl)carbonyl]amino]benzoate], in test [6] (setting [8]), the EC50 worked out at 38.9 µM.

`C#CCOC(=O)Nc1ccc(Cl)c(C(=O)OC(C)C)c1` [Compound 92, 1-Methylethyl 2-chloro-5-[((2-propynyloxy)carbonyl]amino]benzoate]: in test [6], the “Activity class … CEM-6” value was “MA (moderate activity (MA), that is, inhibition between approximately 20 and 50%)”.

As for `CC(C)OC(=O)c1cc(NC(=O)c2ccccc2F)ccc1Cl` [Compound 25, 1-Methylethyl 2-chloro-5-[(2-fluorobenzoyl)amino]benzoate], the EC50 in test [1] was 34.4 µM and 39.4 µM.

For the molecule `CC1=C(C(=O)Nc2ccc(F)c(C(=O)OC(C)C)c2)SCCO1` [Compound 72], the EC50 in test [6] was 0.59 µM and 0.34 µM; in test [6] (setting [8]), 0.54 µM.

Consider `CC(C)OC(=O)c1cc(NC(=O)C2=CCCCC2)ccc1Cl` [Compound 107], for which the “Activity class … CEM-6” value in test [6] was “MA (moderate activity (MA), that is, inhibition between approximately 20 and 50%)”.

For the molecule `CC(C)NC(=S)Nc1ccc(Cl)c(C(=O)OC(C)C)c1` [Compound 49], the “Activity class … CEM-6” value in test [6] is “MA (moderate activity (MA), that is, inhibition between approximately 20 and 50%)”.

With `CC(C)OC(=O)c1cc(NC(=O)c2cc3ccccc3[nH]2)ccc1Cl` [Compound 104], the “Activity class … CEM-6” value in test [6] is “MA (moderate activity (MA), that is, inhibition between approximately 20 and 50%)”.
